Data taken from patent publication US20230028441A1, “NOVEL HETEROARYL-TRIAZOLE COMPOUNDS AS PESTICIDES” (Bayer Aktiengesellschaft, priority 2019, published 2023).

Tests used:
Type in all cases: in vivo
[1] = tested on: cattle tick larvae (Rhipicephalus microplus), strain Parkhurst, resistant against synthetic pyrethroids; experiment: Rhipicephalus (Boophilus) microplus in-vitro contact test, larval cattle tick; settings: 5 μg/cm^2 (=500 g/ha), after 48 hours, read-out: efficacy (larvae dead or moribund)
In short: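 Acetone solutions of compound were coated on glass tube walls (900 ppm giving 5 μg/cm^2) and dried. 20–50 pyrethroid-resistant Parkhurst larvae were held per tube at 27° C and 85% relative humidity; after 48 h negative geotaxis scored efficacy as percent larvae dead or moribund.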

[2] = tested on: adult engorged female ticks (Rhipicephalus microplus); experiment: Rhipicephalus (Boophilus) microplus injection test; settings: 168 h, egg deposition after 7 days, read-out: efficacy (infertile eggs); for pest or weed control at 0.004 mg: 4 μg/animal; for pest or weed control at 0.02 mg: 20 μg/animal
In short: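 Compound was dissolved in DMSO at 10 mg per 0.5 mL and diluted with DMSO to the test concentration. Five engorged adult females received a 1 μL abdominal injection and were kept in a climate chamber. After 7 days, fertile egg deposition was scored, with unclear eggs held until hatching at about 42 days; 100% efficacy means all eggs were infertile.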

[3] = tested on: adult cat fleas (Ctenocephalides felis); experiment: Ctenocephalides felis in-vitro contact test, adult cat flea; settings: 5 μg/cm^2 (=500 g/ha), after 48 hours, read-out: efficacy (fleas dead or moribund)
Method: 9 mg compound is solved in 1 mL acetone and diluted with acetone to the desired concentration. 250 μL of the test solution is filled in 25 mL glass test tubes and homogeneously distributed on the inner walls by rotation and tilting on a shaking device (2 h at 30 rpm). With a compound concentration of 900 ppm, an inner surface of 44.7 cm^2 and a homogeneous distribution, a dose of 5 μg/cm^2 is achieved.
After the solvent has evaporated, each test tube is filled with 5-10 adult cat fleas (Ctenocephalides felis), closed with a perforated lid and incubated in a lying position at room temperature and relative humidity. After 48 hours efficacy is determined. The fleas are patted on the ground of the tubes and are incubated on a heating plate at 45-50° C. for at most 5 minutes. Immotile or uncoordinated moving fleas, which are not able to escape the heat by climbing upwards, are marked as dead or moribund.
An efficacy of 100% means all fleas are dead or moribund; 0% means no fleas are dead or moribund.

[4] = tested on: adult unfed cat fleas (Ctenocephalides felis); experiment: Ctenocephalides felis oral test; settings: 48 h, 100 ppm in cattle blood, after 2 days
In short: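 About 20 adult unfed Ctenocephalides felis fed through parafilm on cattle blood dosed with compound (DMSO stock diluted in blood), blood chamber at 37°C, fleas at room temperature. Mortality (%) scored after 2 days; 100% means all fleas killed.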

[5] = tested on: adult brown dog ticks (Rhipicephalus sanguineus); experiment: Rhipicephalus sanguineus in-vitro contact test with adult brown dog ticks; settings: after 48 hours, read-out: efficacy (ticks dead or moribund); for pest or weed control at 1 µg/cm2, 100 g/ha: 1 μg/cm^2 (=100 g/ha); for pest or weed control at 5 µg/cm2, 500 g/ha: 5 μg/cm^2 (=500 g/ha)
In short: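 Compound in acetone coated onto glass tube inner walls at 900 ppm, giving 5 μg/cm^2. Adult ticks (5-10 per tube) held at room temperature for 48 h, then placed on a 45-50° C. heating plate for up to 5 min. Ticks unable to climb away counted dead or moribund; efficacy given as % dead/moribund.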

[6] = tested on: larvae of the banded cucumber beetle (Diabrotica balteata); experiment: Diabrotica balteata spray test; settings: 168 h, after 7 days, wheat seeds, read-out: efficacy (seedlings grown up); for pest or weed control at 32 µg/disc, 100 g/ha: 100 g/ha (=32 μg/well)
In short: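 Germinated wheat seedlings (5 per well, agar plates) sprayed with compound in acetone/DMF diluted in water with 1000 ppm emulsifier, then infested with 10-20 larvae per unit. Efficacy scored after 7 days as % seedling growth relative to untreated, uninfested control (100% = normal growth, 0% = none).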

[7] = tested on: green peach aphid (Myzus persicae); experiment: Myzus persicae oral test; settings: 120 h
In short: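 Compound was dissolved at 1 part by weight in 100 parts acetone, then diluted with water to test concentration and combined with IPL41 insect medium (33%+15% sugar). A mixed aphid population fed on this through a parafilm seal, and mortality (%) was scored after 5 days.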

[8] = tested on: green peach aphid (Myzus persicae); experiment: Myzus persicae spray test; settings: foliar, 120 h, after 5 days, Chinese cabbage leaf disks
Method: Solvent: 78.0 parts by weight acetone • 1.5 parts by weight dimethylformamide
Emulsifier: alkylarylpolyglycol ether
To produce a suitable preparation of active compound, 1 part by weight of active compound is mixed with the stated amount of solvents and is diluted with water, containing an emulsifier concentration of 1000 ppm, to the desired concentration. Further test concentrations are prepared by dilution with emulsifier containing water.
Chinese cabbage (Brassica pekinensis) leaf disks infected with all instars of the green peach aphid (Myzus persicae), are sprayed with a preparation of the active ingredient of the desired concentration.
After 5 days mortality in % is determined. 100% means all aphids have been killed and 0% means none of the aphids have been killed.

[9] = tested on: larvae of the southern green stink bug (Nezara viridula); experiment: Nezara viridula spray test; settings: in Hordeum vulgare, 96 h
In short: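 Barley plants infested with Nezara viridula larvae were sprayed with compound in acetone/dimethylformamide, diluted in water containing 1000 ppm alkylarylpolyglycol ether emulsifier. Mortality (%) was scored after 4 days; 100% means all stink bugs killed.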

[10] = tested on: fall armyworm larvae (Spodoptera frugiperda); experiment: Spodoptera frugiperda spray test (maize leaf sections); settings: 168 h
In short: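 Maize leaf sections were sprayed with compound formulated in acetone/DMF and diluted in water containing 1000 ppm emulsifier. Once dry, sections were infested with fall armyworm larvae. Mortality (%) was scored after 7 days.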

[11] = tested on: caterpillars of the fall army worm (Spodoptera frugiperda); experiment: Spodoptera frugiperda spray test (cotton leaves); settings: 168 h
Method: Solvent: 14 parts by weight of dimethylformamide
Emulsifier: alkylaryl polyglycol ether
To produce a suitable preparation of active compound, 1 part by weight of active compound is mixed with the stated amount of solvent and is diluted with water, containing an emulsifier concentration of 1000 ppm, to the desired concentration. Further test concentrations are prepared by dilution with emulsifier containing water. Ammonium salt and/or penetration enhancer in a dosage of 1000 ppm are added to the desired concentration if necessary.
Cotton leaves (Gossypium hirsutum) are treated by being sprayed with the preparation of the active compound of the desired concentration and are infested with caterpillars of the fall army worm (Spodoptera frugiperda).
After 7 days mortality in % is determined. 100% means all the caterpillars have been killed and 0% means none of the caterpillars have been killed.

[12] = tested on: brown planthopper (Nilaparvata lugens); experiment: Nilaparvata lugens spray test; settings: in Oryza sativa, 96 h
In short: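 Rice plants (Oryza sativa) sprayed with compound in acetone/DMF diluted in water containing 1000 ppm alkylarylpolyglycol ether emulsifier, then infested with planthoppers. Mortality % scored after 4 days (100% = all killed, 0% = none killed).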

SMILES	pest or weed control at 5 µg/cm2 [1]	pest or weed control at 0.004 mg [2]	pest or weed control at 5 µg/cm2 [3]	mortality at 100 ppm [4]	pest or weed control at 1 µg/cm2, 100 g/ha [5]	pest or weed control at 5 µg/cm2, 500 g/ha [5]	pest or weed control at 32 µg/disc, 100 g/ha [6]	mortality at 4 ppm [7]	mortality at 100 g/ha [8]	mortality at 100 g/ha [9]	mortality at 100 g/ha [10]	pest or weed control at 0.02 mg [2]	mortality at 500 g/ha [10]	mortality at 20 ppm [11]	pest or weed control at 160 µg/disc, 500 g/ha ([6]; 500 g/ha (=160 μg/well))	mortality at 500 g/ha [9]	mortality at 500 g/ha ([8]; 500 g/ha)	mortality at 500 g/ha [12]
CC(NC(=O)c1cc(C(F)(F)F)cc(C(F)(F)F)c1)c1nc(N)nn1-c1ncccn1 (stereo not shown) [I-007]	100%	100%	100%	100%	100%	100%	100%	100%	90%	100%	100%							
CC(NC(=O)c1cc(Cl)cc(C(F)(F)F)c1)c1nc(NC(=O)C2CC2)nn1-c1ccc(Cl)cn1 (stereo not shown) [I-015]		100%		100%							100%	100%	100%	100%				
CC(NC(=O)c1cc(Cl)cc(C(F)(F)F)c1)c1nc(CS(C)(=O)=O)nn1-c1ccc(Cl)cn1 (stereo not shown) [I-029]		100%		100%							100%	100%	100%	100%				
CC(NC(=O)c1cc(Cl)cc(C(F)(F)F)c1)c1nc(S(C)(=O)=O)nn1-c1ccc(Cl)cn1 (stereo not shown) [I-063]		100%					100%	100%			100%	100%	100%	100%	100%	100%		
CC(NC(=O)c1cc(Cl)cc(OC(F)(F)F)c1)c1nc(N)nn1-c1ncccn1 (stereo not shown) [I-090]	90%	100%	90%	100%			100%		90%		100%							
CC(NC(=O)c1cc(Br)cc(OC(F)(F)F)c1)c1nc(N)nn1-c1ncccn1 (stereo not shown) [I-095]	100%		90%				100%	100%								90%	90%	
CNc1nc([C@H](C)NC(=O)c2cc(C(F)(F)F)cc(C(F)(F)F)c2)n(-c2ncccn2)n1 [I-127, N-[(1S)-1-[5-(methylamino)-2-pyrimidin-2-yl-1,2,4-triazol-3-yl]ethyl]-3,5-bis(trifluoromethyl)benzamide]	100%		100%		100%	100%	100%		90%		100%					100%		90%
C[C@H](NC(=O)c1cc(C(F)(F)F)cc(C(F)(F)F)c1)c1nc(N)nn1-c1ncccn1 [I-134, N-[(1S)-1-(5-amino-2-pyrimidin-2-yl-1,2,4-triazol-3-yl)ethyl]-3,5-bis(trifluoromethyl) benzamide]	100%		100%		100%	100%	100%		100%		100%					100%		100%
CNc1nc([C@H](C)NC(=O)c2cc(Br)cc(OC(F)(F)F)c2)n(-c2ccc(C#N)cn2)n1 [I-142]							100%				100%			100%		100%		
CNc1nc([C@H](C)NC(=O)c2cc(Br)cc(Br)c2)n(-c2ccc(C#N)cn2)n1 [I-143]							100%				100%			100%		100%		
C[C@H](NC(=O)c1cc(Cl)cc(S(C)(=O)=O)c1)c1nc(N)nn1-c1ccc(C#N)cn1 [I-148, N-[(1S)-1-[5-amino-2-(5-cyano-2-pyridyl)-1,2,4-triazol-3-yl]ethyl]-3-chloro-5-methylsulfonyl-benzamide]	90%						100%		90%		100%					100%		100%
CNc1nc([C@H](C)NC(=O)c2cc(Cl)cc(S(=O)(=O)C(F)F)c2)n(-c2ncccn2)n1 [I-202]							100%		90%		100%					100%		100%
